According to PubChem BioAssay (NCI):
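Exposure lasted 48 hours, with cells grown in 96-well plates and compounds tested at five concentrations. At the GI50, growth is halved. Definition used: TGI = concentration required for complete inhibition of growth.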

Assays:
Assay in all cases: inhibition of tumour cell growth, NCI panel, 48 h
A549 NSCLC = system: A549 NSCLC
HCT-15 colon = system: HCT-15 colon
HOP-62 NSCLC = system: HOP-62 NSCLC
LOX IMVI melanoma = system: LOX IMVI melanoma
M14 melanoma = system: M14 melanoma
MALME-3M melanoma = system: MALME-3M melanoma
MDA-MB-231 breast = system: MDA-MB-231 breast
PC-3 prostate = system: PC-3 prostate
SN12C renal = system: SN12C renal
UO-31 renal = system: UO-31 renal

Structure (SMILES) | GI50 (A549 NSCLC) [µM] | TGI (A549 NSCLC) [µM] | GI50 (HCT-15 colon) [µM] | TGI (HCT-15 colon) [µM] | GI50 (HOP-62 NSCLC) [µM] | TGI (HOP-62 NSCLC) [µM] | GI50 (LOX IMVI melanoma) [µM] | TGI (LOX IMVI melanoma) [µM] | GI50 (M14 melanoma) [µM] | TGI (M14 melanoma) [µM] | GI50 (MALME-3M melanoma) [µM] | TGI (MALME-3M melanoma) [µM] | GI50 (MDA-MB-231 breast) [µM] | TGI (MDA-MB-231 breast) [µM] | GI50 (PC-3 prostate) [µM] | TGI (PC-3 prostate) [µM] | GI50 (SN12C renal) [µM] | TGI (SN12C renal) [µM] | GI50 (UO-31 renal) [µM] | TGI (UO-31 renal) [µM]
COc1ccc(NC(=O)c2cc(OC)c(OC)c(OC)c2)cc1O | 4.59 | > 100 | 1.46 | > 100 | 5.36 | > 100 | 8.33 | > 100 | 2.91 | > 100 | 29.4 | > 100 | 6.79 | > 100 | 2.52 | > 100 | 7.99 | > 100 | 18.1 | > 100
Oc1ccc2ccccc2c1N=Nc1ccccc1 |  | > 100 |  | > 100 |  | > 100 |  | > 100 |  | > 100 |  | > 100 |  | > 100 |  | > 100 |  | > 100 |  | > 100
Oc1ccccc1-n1c(-c2ccccc2)ccc1-c1ccccc1 | 4.62 | 19.6 | 5.57 | 28.7 | 11.3 | 24.2 | 6.1 | 20.5 | 3.71 | 29.2 | 2.9 | 16.2 | 4.21 | 22.1 | 2.95 | 15.8 | 3.62 | 16 | 2.17 | 10.6
Cn1ccnc1C(=O)/C=C/c1ccc(C(=O)Nc2nc3ccccc3[nH]2)cc1 | 10.3 | > 25 | 0.864 | > 25 | 6.42 | > 25 | 2.38 | > 25 | 10.3 | > 25 | > 25 | > 25 | 3.05 | 13.1 | 3.78 | > 25 | 9.93 | > 25 | 2.07 | > 25
C[C@@H]1CC[C@@]2(OC1)O[C@H]1C[C@H]3[C@@H]4CC=C5C[C@@H](O[C@@H]6O[C@H](CO)[C@@H](O[C@@H]7O[C@@H](CO)[C@H](O)[C@H]7O)[C@H](O)[C@H]6O[C@@H]6O[C@@H](C)[C@H](O)[C@@H](O)[C@H]6O)CC[C@]5(C)[C@H]4CC[C@]3(C)[C@H]1[C@@H]2C |  | 2.04 | 1.12 | 2.46 | 1.09 | 2.4 | 0.332 | 1.19 |  | 2.07 | 0.681 | 2 | 0.514 | 1.77 | 1.45 | 2.81 | 0.481 | 1.65 | 1.28 | 2.55
C[Se]C(=O)CC1=C2C=C(F)C=CC2/C(=C\c2ccc(S(C)=O)cc2)C1C (stereo not drawn) | 0.0257 | 2.66 | 0.0461 | 1.21 | < 0.01 | 0.331 | 0.0141 | 0.0296 | 0.0387 | 1.52 | 0.156 | 0.4 | 0.0427 | 0.327 | 0.174 | 1.95 | 0.0401 | 1.34 | 0.036 | 0.179
Oc1c(CN2CCCC2)cc(COCc2ccccc2)c2cccnc12 | 3.35 | 14.1 | 0.152 | 2.9 | 1.65 | 9.5 | 0.798 | 5.61 | 1.11 | 10.1 | 3.35 | 14.4 | 4.98 | 20.1 | 2.73 | 23.3 | 4.04 | 20.8 | 0.158 | 2.55
